Source: the NIST ThermoML archive (doi:10.1021/je900596d)
Numbers after ± are expanded uncertainties.

Details: for mass density: Fluid (supercritical or subcritical phases), Vibrating tube method; for vapor or sublimation pressure: Liquid, Closed cell (Static) method

FC(F)=C(F)C(F)(F)F [hexafluoropropene]
mass density [kg/m3]
Details	358.16 K	362.9 K
6.3 kPa	–	0.34 ± 0.03
6.7 kPa	0.18 ± 0.03	–
7.2 kPa	0.21 ± 0.03	–
7.5 kPa	0.23 ± 0.03	–
7.7 kPa	0.26 ± 0.03	–
8.4 kPa	–	0.44 ± 0.03
8.5 kPa	0.27 ± 0.03	–
8.8 kPa	0.31 ± 0.03	–
9.2 kPa	0.32 ± 0.03	–
9.8 kPa	0.34 ± 0.03	–
10.7 kPa	–	0.55 ± 0.03
12.4 kPa	0.45 ± 0.03	–
13.4 kPa	0.5 ± 0.03	–
14.5 kPa	0.6 ± 0.03	–
15.1 kPa	–	0.65 ± 0.03
15.5 kPa	0.63 ± 0.03	–
16.5 kPa	0.69 ± 0.03	–
17.2 kPa	–	0.88 ± 0.03
17.6 kPa	0.76 ± 0.03	–
19.6 kPa	0.84 ± 0.03	–
20.7 kPa	0.88 ± 0.03	–
20.8 kPa	–	1.04 ± 0.03
21.7 kPa	0.92 ± 0.03	–
22.7 kPa	1.01 ± 0.03	–
23 kPa	–	1.15 ± 0.03
23.9 kPa	1.07 ± 0.03	–
25.2 kPa	–	1.27 ± 0.03
25.9 kPa	1.13 ± 0.03	–
26.9 kPa	1.2 ± 0.03	–
27.9 kPa	1.24 ± 0.03	–
29 kPa	1.31 ± 0.03	–
30 kPa	1.37 ± 0.03	–
31 kPa	1.42 ± 0.03	–
31.8 kPa	–	1.53 ± 0.03
32 kPa	1.45 ± 0.03	–
33 kPa	1.5 ± 0.03	–
34 kPa	1.62 ± 0.03	1.65 ± 0.03
35.1 kPa	1.63 ± 0.03	–
36.1 kPa	1.72 ± 0.03	–
37.4 kPa	–	1.78 ± 0.03
39.1 kPa	1.8 ± 0.03	–
40.1 kPa	1.85 ± 0.03	–
40.2 kPa	–	2 ± 0.03
41.2 kPa	1.9 ± 0.03	–
42.2 kPa	1.99 ± 0.03	–
42.3 kPa	–	2.22 ± 0.03
45.3 kPa	2.13 ± 0.03	–
47.8 kPa	–	2.29 ± 0.03
52.2 kPa	2.54 ± 0.03	–
57.7 kPa	–	2.87 ± 0.03
58.8 kPa	2.84 ± 0.03	–
64.3 kPa	–	3.19 ± 0.03
65.5 kPa	3.31 ± 0.03	–
72.2 kPa	3.58 ± 0.03	–
75.1 kPa	–	3.75 ± 0.03
79 kPa	3.91 ± 0.03	–
81.7 kPa	–	4.07 ± 0.03
85.8 kPa	4.34 ± 0.03	–
88 kPa	–	4.26 ± 0.03
92.6 kPa	4.61 ± 0.03	–
96.7 kPa	–	4.85 ± 0.03
99.4 kPa	4.96 ± 0.03	–
103.1 kPa	–	5.2 ± 0.03
109.4 kPa	–	5.38 ± 0.03
115.5 kPa	5.84 ± 0.03	–
122.1 kPa	–	6.16 ± 0.03
124.6 kPa	6.23 ± 0.03	–
128.4 kPa	–	6.44 ± 0.03
133.8 kPa	6.76 ± 0.03	–
134.6 kPa	–	6.83 ± 0.03
140.8 kPa	–	7.19 ± 0.03
142.9 kPa	7.23 ± 0.03	–
146.9 kPa	–	7.41 ± 0.03
152 kPa	7.73 ± 0.04	–
153.1 kPa	–	7.6 ± 0.03
161.1 kPa	8.2 ± 0.04	–
162.6 kPa	–	8.2 ± 0.04
170.1 kPa	8.69 ± 0.04	–
172.6 kPa	–	8.83 ± 0.04
179.2 kPa	9.15 ± 0.04	–
183.5 kPa	–	9.3 ± 0.04
188.3 kPa	9.64 ± 0.04	–
191.9 kPa	–	9.53 ± 0.04
197.2 kPa	10.14 ± 0.04	–
201.8 kPa	10.33 ± 0.04	–
205.9 kPa	–	10.23 ± 0.04
215.2 kPa	11.03 ± 0.04	–
217.1 kPa	–	10.89 ± 0.04
228.6 kPa	11.76 ± 0.04	–
239.3 kPa	–	12.29 ± 0.04
241.9 kPa	12.39 ± 0.04	–
250.5 kPa	–	12.86 ± 0.04
255.2 kPa	13.18 ± 0.04	–
261.7 kPa	–	13.26 ± 0.04
268.5 kPa	13.87 ± 0.04	–
272.8 kPa	–	13.91 ± 0.04
281.6 kPa	14.57 ± 0.04	–
284 kPa	–	14.66 ± 0.04
294.9 kPa	–	14.96 ± 0.04
295.2 kPa	15.37 ± 0.04	–
305.9 kPa	–	15.65 ± 0.04
308.9 kPa	16.07 ± 0.04	–
322.3 kPa	–	16.67 ± 0.04
323.1 kPa	16.83 ± 0.04	–
337.5 kPa	17.58 ± 0.04	–
338.5 kPa	–	17.36 ± 0.04
352.1 kPa	18.44 ± 0.04	–
354.9 kPa	–	18.21 ± 0.04
366.8 kPa	19.21 ± 0.04	–
370.9 kPa	–	19.21 ± 0.04
381.5 kPa	19.95 ± 0.04	–
386.8 kPa	–	19.93 ± 0.04
396.2 kPa	20.78 ± 0.04	–
402.6 kPa	–	20.85 ± 0.04
411 kPa	21.59 ± 0.04	–
418.2 kPa	–	21.77 ± 0.04
427.6 kPa	22.57 ± 0.05	–
444 kPa	23.52 ± 0.05	–
449.3 kPa	–	23.6 ± 0.05
460.4 kPa	24.33 ± 0.05	–
476.7 kPa	25.35 ± 0.05	–
485.1 kPa	–	25.57 ± 0.05
492.9 kPa	26.26 ± 0.05	–
500.3 kPa	–	26.4 ± 0.05
509.2 kPa	27.13 ± 0.05	–
520.6 kPa	–	27.39 ± 0.05
525.3 kPa	28.12 ± 0.05	–
540.4 kPa	–	28.38 ± 0.05
541.5 kPa	29.02 ± 0.05	–
557.6 kPa	29.96 ± 0.05	–
560.3 kPa	–	29.54 ± 0.05
575.1 kPa	31 ± 0.05	–
580 kPa	–	30.72 ± 0.05
592.7 kPa	31.99 ± 0.05	–
599.7 kPa	–	31.79 ± 0.06
610.1 kPa	32.94 ± 0.06	–
619.3 kPa	–	32.97 ± 0.06
627.5 kPa	34 ± 0.06	–
638.8 kPa	–	34.15 ± 0.06
645.1 kPa	35.06 ± 0.06	–
658.1 kPa	–	35.19 ± 0.06
663.8 kPa	36.18 ± 0.06	–
677.4 kPa	–	36.24 ± 0.06
682.3 kPa	37.25 ± 0.06	–
696.6 kPa	–	37.68 ± 0.06
700.8 kPa	38.41 ± 0.06	–
715.6 kPa	–	38.68 ± 0.06
719.1 kPa	39.53 ± 0.06	–
737.3 kPa	40.62 ± 0.06	–
753.3 kPa	–	40.79 ± 0.06
755.2 kPa	41.68 ± 0.07	–
772.1 kPa	–	41.86 ± 0.07
773.2 kPa	42.77 ± 0.07	–
790.7 kPa	–	43.17 ± 0.07
791.1 kPa	43.9 ± 0.07	–
808.6 kPa	44.92 ± 0.07	–
809.2 kPa	–	44.11 ± 0.07
827.4 kPa	–	45.36 ± 0.07
843.9 kPa	47.16 ± 0.07	–
845.6 kPa	–	46.55 ± 0.07
861.2 kPa	48.3 ± 0.07	–
863.7 kPa	–	47.41 ± 0.07
878.4 kPa	49.34 ± 0.08	–
881.6 kPa	–	48.62 ± 0.08
895.4 kPa	50.38 ± 0.08	–
899.5 kPa	–	49.68 ± 0.08
912.3 kPa	51.52 ± 0.08	–
917.1 kPa	–	50.72 ± 0.08
929.2 kPa	52.65 ± 0.08	–
934.7 kPa	–	52.13 ± 0.08
945.9 kPa	53.68 ± 0.08	–
952.2 kPa	–	53.09 ± 0.08
964.1 kPa	54.95 ± 0.08	–
969.4 kPa	–	54.03 ± 0.08
981.4 kPa	56.09 ± 0.08	–
999 kPa	57.2 ± 0.09	–
1004 kPa	57.55 ± 0.09	–
1037.2 kPa	59.89 ± 0.09	–
1056.7 kPa	61.12 ± 0.09	–
1079.5 kPa	62.72 ± 0.09	–
1113.6 kPa	65.06 ± 0.1	–
1151.3 kPa	67.79 ± 0.1	–
1177.8 kPa	69.69 ± 0.1	–
1204.6 kPa	71.61 ± 0.1	–
1231.5 kPa	73.4 ± 0.11	–
1251 kPa	74.95 ± 0.11	–
1277.5 kPa	76.93 ± 0.11	–
1297.2 kPa	78.23 ± 0.11	–
1318.3 kPa	79.8 ± 0.12	–
1351 kPa	82.19 ± 0.12	–
1384.5 kPa	84.6 ± 0.12	–
1419.6 kPa	87.38 ± 0.13	–
1453.8 kPa	89.96 ± 0.13	–
1487.2 kPa	92.64 ± 0.14	–
1522.4 kPa	95.5 ± 0.14	–
1557 kPa	98.35 ± 0.14	–
1592 kPa	101.11 ± 0.15	–
1624.7 kPa	103.88 ± 0.15	–
1659.3 kPa	106.85 ± 0.16	–
1677.7 kPa	108.37 ± 0.16	–
1712.3 kPa	111.38 ± 0.16	–
1748.1 kPa	114.59 ± 0.17	–
1780.9 kPa	117.54 ± 0.17	–
1815.7 kPa	120.8 ± 0.18	–
1848.2 kPa	123.82 ± 0.18	–
1883.1 kPa	127.18 ± 0.19	–
1916.7 kPa	130.47 ± 0.2	–
1948.8 kPa	133.66 ± 0.2	–
1982.5 kPa	137.05 ± 0.21	–
2016.7 kPa	140.6 ± 0.22	–
2051.6 kPa	144.28 ± 0.22	–
2085.7 kPa	147.98 ± 0.23	–
2118.7 kPa	151.7 ± 0.24	–
2152.9 kPa	155.54 ± 0.25	–
2185.6 kPa	159.34 ± 0.26	–
2250.5 kPa	167.24 ± 0.27	–
2283.4 kPa	171.42 ± 0.28	–
2316.3 kPa	175.71 ± 0.29	–
2349.2 kPa	180.05 ± 0.3	–
2381.8 kPa	184.6 ± 0.31	–
2414.3 kPa	189.16 ± 0.33	–
2462.8 kPa	196.45 ± 0.35	–
2529.2 kPa	206.94 ± 0.37	–
2562.6 kPa	212.61 ± 0.39	–
2581.2 kPa	215.74 ± 0.41	–
2616.7 kPa	222.24 ± 0.43	–
2635.2 kPa	225.67 ± 0.45	–
2669.9 kPa	232.45 ± 0.47	–
2703.7 kPa	239.44 ± 0.5	–
2738.3 kPa	247.03 ± 0.54	–
2771.6 kPa	254.87 ± 0.58	–
2806.3 kPa	263.68 ± 0.62	–
2839.2 kPa	272.73 ± 0.7	–
2872.4 kPa	282.77 ± 0.77	–
2905.9 kPa	293.88 ± 0.8	–
2939.1 kPa	305.79 ± 1	–
2972 kPa	319.7 ± 1.2	–
3000.1 kPa	333.22 ± 1.5	–
3003 kPa	334.75 ± 1.6	–
3005.7 kPa	336.23 ± 1.6	–
3008.2 kPa	337.55 ± 1.6	–
3010.9 kPa	338.92 ± 1.7	–
3013.2 kPa	340.27 ± 1.7	–
3015.5 kPa	341.83 ± 1.7	–
3017.6 kPa	343.29 ± 1.7	–
3019.8 kPa	344.7 ± 1.8	–
3022.4 kPa	346.21 ± 1.9	–
3025.8 kPa	348.17 ± 2	–
3027.8 kPa	349.31 ± 2	–
3031.6 kPa	351.6 ± 2	–
3035.5 kPa	354.08 ± 1.1	–
3037.5 kPa	355.4 ± 0.95	–
3041.3 kPa	357.97 ± 1.1	–
3045.1 kPa	360.72 ± 0.98	–
3047.1 kPa	362.14 ± 0.96	–
3050.9 kPa	364.96 ± 0.95	–
3054.3 kPa	367.81 ± 0.93	–
3057.8 kPa	370.74 ± 1.1	–
3061.2 kPa	373.72 ± 2.1	–
3064.5 kPa	376.75 ± 2.1	–
3067.7 kPa	379.88 ± 2.2	–
3071 kPa	383.12 ± 2.2	–
3074 kPa	386.4 ± 2.2	–
3077 kPa	389.78 ± 2.3	–

Details	vapor or sublimation pressure [kPa]
358.26 K	3095.1 ± 5.5
358.76 K	3128.1 ± 5.5
